Publication PMC8221158, “Novel pyrrolizines bearing 3,4,5-trimethoxyphenyl moiety: design, synthesis, molecular docking, and biological evaluation as potential multi-target cytotoxic agents” (Journal of Enzyme Inhibition and Medicinal Chemistry, 2021)

Assays:
20 kinases = tested on: 20 kinases; set-up: method as in PMID 31655429; conditions: ALK1, CDK-2/cyclin A1, DYRK3, GSK3 alpha, NEK1; cited from earlier work
MCF-7 = conditions: MTT, 72 h; read-out: IC50 (µM ± SD) MCF-7; cited from earlier work
normal MRC-5 cells = tested on: normal MRC-5 cells; set-up: method as in PMID 31655429; conditions: 72 h; read-out: IC50 (µM ± SD) MRC-5; cited from earlier work
MCF-7 cells = tested on: MCF-7 cells; set-up: method as in PMID 31655429; conditions: 1 µM, 24 h; control 17.3%; cited from earlier work
[1] = tested on: MCF-7, HCT116, and A2780 cancer cell lines; assay: MTT assay, three cancer cell lines taken together (average, overall range); format: cell-based, human; conditions: Homo sapiens; MCF-7, HCT116, A2780; read-out: Average of the three IC50 values against the three cancer cell lines
A2780 = conditions: MTT, 72 h; read-out: IC50 (µM ± SD) A2780; cited from earlier work
CDK-2 = target: T1, CDK-2 (Homo sapiens, UniProt P24941); set-up: method as in PMID 17064068; conditions: read-out: IC50 against CDK-2; cited from earlier work
T1 construct: purchased Promega, Madison, WI

Aurora A = target: T2, Aurora A (Homo sapiens, UniProt O14965); assay: Kinase profiling test; format: biochemical; conditions: stated as inhibition
T2 sequence (O14965 1-403): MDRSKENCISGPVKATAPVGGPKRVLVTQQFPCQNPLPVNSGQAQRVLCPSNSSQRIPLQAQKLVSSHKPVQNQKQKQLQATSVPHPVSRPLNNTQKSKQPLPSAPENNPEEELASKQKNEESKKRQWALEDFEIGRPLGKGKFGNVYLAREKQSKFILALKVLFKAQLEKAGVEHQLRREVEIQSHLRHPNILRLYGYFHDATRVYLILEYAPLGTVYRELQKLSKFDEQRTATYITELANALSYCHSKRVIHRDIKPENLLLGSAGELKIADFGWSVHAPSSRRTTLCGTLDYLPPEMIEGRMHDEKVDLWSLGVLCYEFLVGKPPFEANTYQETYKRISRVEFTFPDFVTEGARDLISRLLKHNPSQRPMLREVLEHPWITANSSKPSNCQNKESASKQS
Method: The test was performed using the radiolabeled ATP determination method (KINEXUS Bioinformatics Corporation, Vancouver, Canada). The test was performed following the previous reports[13]^,[20].
The three compounds were tested at the same concentration (10 μM) against the same 20 kinases used in the previous report. The test was performed by KINEXUS Bioinformatics Corporation (Vancouver, Canada), following previous reports[13]^,[20].

VEGFR-2 = tested on: VEGFR-2; set-up: method as in PMID 24890652; conditions: cited from earlier work
tubulin assembly = tested on: tubulin assembly; set-up: method as in PMID 24890652; conditions: cited from earlier work
HDAC2 = conditions: cited from earlier work
[2] = tested on: a panel of cancer cell lines; conditions: read-out: cytotoxic activity IC50; cited from earlier work
HDAC1 = conditions: cited from earlier work
HDAC3 = conditions: cited from earlier work
porcine tubulin = target: T3, porcine tubulin (Sus scrofa, UniProt P02550+P02554); assay: Tubulin polymerisation fluorescence-based assay; format: biochemical; conditions: 3 μM, positive control (enhancer)
T3 construct: purchased Cytoskeleton Inc., Denver, CO BK011P
Method: The effect of compounds 16a,b,d on tubulin polymerisation was measured in vitro using tubulin polymerisation fluorescence-based assay (cytoskeleton, cat. BK011P, https://www.cytoskeleton.com/bk011p). The assay was performed following the previous report[22] and according to the manufacturer’s instructions. Briefly, 2 mg/mL porcine tubulin was dissolved in buffer 1 (80 mM PIPES, 2 mM MgCl2, 0.5 mM EGTA pH 6.9, 10 µM fluorescent reporter, 1 mM GTP, 15% glycerol) to a final concentration of […]. Then tubulin solution was transferred to a pre-warmed 96-well plate that contained the test compounds 16a,b,d (5 μM), paclitaxel (3 μM), CaCl2 (0.5 μM), and control buffer. The polymerisation of tubulin was monitored as fluorescence at 37 °C for 60 min. Relative fluorescence units (RFU) were determined at 360 nm for excitation and at 460 nm for emission using the Varioskan Flash spectral scanning multimode reader (Thermo Fisher Scientific, Roskilde, Denmark) at a reading speed of 1 cycle/min.
In the current study, the new compounds were designed bearing the trimethoxy phenyl moiety aiming to obtain new cytotoxic agents that can interfere with tubulin polymerisation in cancer cells. […] In this assay, light scattering by microtubules which is directly proportional to the concentration of the microtubule polymer was used as a measure of tubulin polymerisation. The study was performed using a fluorescence-based tubulin polymerisation assay kit (Cytoskeleton Inc., Denver, CO; Cat # BK011P) following the manufacturer’s instructions (https://www.cytoskeleton.com/bk011p) and according to the previous report.
Paclitaxel (3 μM) was used as a tubulin polymerisation enhancer (positive control, enhancer), while calcium chloride (CaCl2, 0.5 μM) was used as a positive control (inhibitor) as per the manufacturer’s instructions (https://www.cytoskeleton.com/pdf-storage/datasheets/bk011p.pdf). The vehicle was also used to evaluate the polymerisation when tubulin is incubated in the absence of the test compound. The effect of the selected compounds (5 μM) on tubulin polymerisation was evaluated and compared with those of the positive control. The results are represented in Figure 8.

T3 sequence (P02550 whole entry): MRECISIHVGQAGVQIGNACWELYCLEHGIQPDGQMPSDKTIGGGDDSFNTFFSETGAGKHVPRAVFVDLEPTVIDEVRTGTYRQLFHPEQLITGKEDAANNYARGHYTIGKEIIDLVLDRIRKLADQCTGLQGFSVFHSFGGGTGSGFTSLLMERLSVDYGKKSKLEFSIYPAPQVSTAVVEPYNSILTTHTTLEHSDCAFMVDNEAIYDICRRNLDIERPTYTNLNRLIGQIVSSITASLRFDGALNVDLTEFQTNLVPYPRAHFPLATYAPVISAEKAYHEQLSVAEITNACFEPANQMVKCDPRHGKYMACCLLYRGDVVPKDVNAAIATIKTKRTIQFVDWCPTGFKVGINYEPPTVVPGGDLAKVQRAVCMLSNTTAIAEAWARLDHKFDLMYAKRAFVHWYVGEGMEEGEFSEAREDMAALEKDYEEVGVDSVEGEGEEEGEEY
T3 sequence (P02554 whole entry): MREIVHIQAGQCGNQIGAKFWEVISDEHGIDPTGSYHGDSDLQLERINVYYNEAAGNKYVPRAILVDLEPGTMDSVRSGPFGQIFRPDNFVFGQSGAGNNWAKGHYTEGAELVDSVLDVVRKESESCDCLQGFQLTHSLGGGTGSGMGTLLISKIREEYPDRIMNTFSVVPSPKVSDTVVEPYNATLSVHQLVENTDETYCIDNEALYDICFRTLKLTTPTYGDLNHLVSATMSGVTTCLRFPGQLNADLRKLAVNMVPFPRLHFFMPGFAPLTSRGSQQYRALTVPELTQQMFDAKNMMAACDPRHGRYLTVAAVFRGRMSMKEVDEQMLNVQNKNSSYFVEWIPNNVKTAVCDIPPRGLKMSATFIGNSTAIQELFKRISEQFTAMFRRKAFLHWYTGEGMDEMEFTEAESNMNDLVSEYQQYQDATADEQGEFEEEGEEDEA

For `CC(C)C/C=N/c1c(C#N)c2n(c1C(=O)Nc1ccc(Br)cc1)CCC2` [9a], the “inhibition% over the inhibited kinases of the panel” value (20 kinases) is given as 3–25%, the IC50 (MCF-7) is given as 0.1 ± 0.05 µM and the IC50 (normal MRC-5 cells) is given as 25.8 ± 0.73 µM. For the same compound, the “Cell cycle S phase %” value (MCF-7 cells) was 55.6%, the IC50 [1] was 0.31 µM and the IC50 (A2780) was 0.52 ± 0.02 µM.

For `N#Cc1c(/N=C/c2ccccc2)c(C(=O)Nc2ccc(Br)cc2)n2c1CCC2` [9b], the IC50 (MCF-7) is listed as 0.5 ± 0.15 µM, the IC50 (normal MRC-5 cells) is listed as 9 ± 0.13 µM and the IC50 [1] is listed as 2.33 µM. For the same compound, the IC50 (A2780) was 4.16 ± 1.27 µM.

In the case of `Nc1n[nH]c(N)c1/N=N/c1ccc(O)cc1` [CAN508, 4-[(E)-(3,5-diamino-1H-pyrazol-4-yl)diazenyl)phenol], the IC50 (CDK-2) is listed as 3.5 µM.

Work on `Cc1ccc(NC(=O)c2ccc(CN3CCN(C)CC3)cc2)cc1Nc1nccc(-c2cccnc2)n1` [Imatinib, reference compound] yielded an inhibition at 10 µM (Aurora A) of 38%.

For `COc1ccc(N(C)c2nc(C)nc3oc(C)cc23)cc1` [compound 7], the IC50 (VEGFR-2) is given as […] and the IC50 (tubulin assembly) is given as 0.0019 µM.

In the case of `COc1cc2c(c(OC)c1OC)-c1ccc(OC)c(=O)cc1[C@@H](NCc1ccc(C(=O)Nc3ccccc3N)cc1)CC2` [compound 8], the IC50 (HDAC2) is listed as 6.73 µM, the IC50 [2] is listed as 0.002 to 0.105 µM and the IC50 (HDAC1) is listed as 12.5 µM. For the same compound, the IC50 (HDAC3) was 11.2 µM.

For `CC(=O)O[C@H]1C(=O)[C@@]2(C)[C@H]([C@H](OC(=O)c3ccccc3)[C@]3(O)C[C@H](OC(=O)[C@H](O)[C@@H](NC(=O)c4ccccc4)c4ccccc4)C(C)=C1C3(C)C)[C@]1(OC(C)=O)CO[C@@H]1C[C@@H]2O` [paclitaxel, reference compound], the “effect on tubulin polymerisation” value (porcine tubulin) was “eliminated the nucleation phase I and enhanced the growth phase II”.
